We go through 1 compound from PMC10286969, “Characterization of the biochemical activity and tumor-promoting role of the dual protein methyltransferase METL-13/METTL13 in Caenorhabditis elegans” (PLOS ONE, 2023).

This assay addresses T1, MT13-C (C-terminal MTase domain fragment of METL-13) (Caenorhabditis elegans, UniProt Q17539).
T1 construct: C-terminal methyltransferase fragment, residues 213-656, N-terminal His6 tag (pET28a), expressed in E. coli, Ni-NTA purified
T1 sequence (Q17539 213-656): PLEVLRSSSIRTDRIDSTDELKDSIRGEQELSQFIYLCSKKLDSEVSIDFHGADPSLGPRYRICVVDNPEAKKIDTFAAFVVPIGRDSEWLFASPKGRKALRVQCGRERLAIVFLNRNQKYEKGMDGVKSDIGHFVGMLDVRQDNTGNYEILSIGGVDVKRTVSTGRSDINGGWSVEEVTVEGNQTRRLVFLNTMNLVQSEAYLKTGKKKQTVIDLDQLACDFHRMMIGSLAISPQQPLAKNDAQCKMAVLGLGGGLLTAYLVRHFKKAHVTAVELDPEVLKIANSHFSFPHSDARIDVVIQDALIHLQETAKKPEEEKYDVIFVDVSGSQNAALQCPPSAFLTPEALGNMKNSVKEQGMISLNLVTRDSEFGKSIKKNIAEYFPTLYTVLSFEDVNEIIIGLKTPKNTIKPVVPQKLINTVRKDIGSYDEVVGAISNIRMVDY
Kind of assay: in vitro methyltransferase assay, SDS-PAGE fluorography. It is filed as biochemical. Conditions: methyl donor; protein substrate recombinant human eEF1A1 with C-terminal His tag (N-terminal G2 methylation); labelled compound (tritium); pH 7.4, 100 mM NaCl, 10% glycerol, 30 °C, 1 h.

For the compound `C[S+](CC[C@H](N)C(=O)O)C[C@H]1O[C@@H](n2cnc3c(N)ncnc32)[C@H](O)[C@@H]1O` (stereo partly shown) [[^3H]-AdoMet], the “in vitro methyltransferase assay, SDS-PAGE fluorography” value was “C. elegans MT13-N or MT13-C as enzymes, human eEF1A1 as the substrate and [^3H]AdoMet”.
